Values quoted from earlier work as cited in US20240294879A1, “STEM CELL DIFFERENTIATION AND POLYMERS” (VERTEX PHARMACEUTICALS INCORPORATED, priority 2021, published 2024).

Biological target: EZH2 (Homo sapiens, UniProt Q15910)
Sequence (Q15910 whole entry, species assumed): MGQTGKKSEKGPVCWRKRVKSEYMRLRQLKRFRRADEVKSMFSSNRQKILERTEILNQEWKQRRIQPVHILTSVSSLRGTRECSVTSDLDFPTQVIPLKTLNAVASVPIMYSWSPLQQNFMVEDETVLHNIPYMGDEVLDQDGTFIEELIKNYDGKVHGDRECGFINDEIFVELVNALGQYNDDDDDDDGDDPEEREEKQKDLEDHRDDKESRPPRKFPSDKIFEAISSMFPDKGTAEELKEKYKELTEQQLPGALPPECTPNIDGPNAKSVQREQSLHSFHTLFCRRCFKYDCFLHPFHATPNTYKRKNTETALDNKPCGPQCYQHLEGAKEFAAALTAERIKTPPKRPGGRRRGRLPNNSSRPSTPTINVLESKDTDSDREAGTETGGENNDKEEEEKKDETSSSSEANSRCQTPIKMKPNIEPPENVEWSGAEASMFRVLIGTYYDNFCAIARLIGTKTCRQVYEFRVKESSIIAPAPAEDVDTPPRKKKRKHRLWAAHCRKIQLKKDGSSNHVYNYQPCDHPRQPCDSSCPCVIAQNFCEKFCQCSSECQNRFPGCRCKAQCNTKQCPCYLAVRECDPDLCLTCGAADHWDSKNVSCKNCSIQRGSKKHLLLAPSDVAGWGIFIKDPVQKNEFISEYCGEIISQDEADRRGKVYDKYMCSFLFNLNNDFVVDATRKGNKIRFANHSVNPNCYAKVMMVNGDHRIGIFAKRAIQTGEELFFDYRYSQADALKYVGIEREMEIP
Sequence (O75530 whole entry partner, species assumed): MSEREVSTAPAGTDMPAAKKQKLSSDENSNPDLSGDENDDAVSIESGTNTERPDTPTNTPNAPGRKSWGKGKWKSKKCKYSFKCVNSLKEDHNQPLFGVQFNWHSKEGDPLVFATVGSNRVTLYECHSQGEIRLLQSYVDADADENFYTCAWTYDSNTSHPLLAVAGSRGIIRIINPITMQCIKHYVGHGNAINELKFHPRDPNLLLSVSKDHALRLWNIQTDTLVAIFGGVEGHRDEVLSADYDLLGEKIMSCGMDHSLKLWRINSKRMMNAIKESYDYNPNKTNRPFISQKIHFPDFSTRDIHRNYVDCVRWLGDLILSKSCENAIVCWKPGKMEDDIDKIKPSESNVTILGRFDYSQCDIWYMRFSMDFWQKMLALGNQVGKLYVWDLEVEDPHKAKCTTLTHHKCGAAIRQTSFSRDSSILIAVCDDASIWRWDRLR
Sequence (Q15022 whole entry partner, species assumed): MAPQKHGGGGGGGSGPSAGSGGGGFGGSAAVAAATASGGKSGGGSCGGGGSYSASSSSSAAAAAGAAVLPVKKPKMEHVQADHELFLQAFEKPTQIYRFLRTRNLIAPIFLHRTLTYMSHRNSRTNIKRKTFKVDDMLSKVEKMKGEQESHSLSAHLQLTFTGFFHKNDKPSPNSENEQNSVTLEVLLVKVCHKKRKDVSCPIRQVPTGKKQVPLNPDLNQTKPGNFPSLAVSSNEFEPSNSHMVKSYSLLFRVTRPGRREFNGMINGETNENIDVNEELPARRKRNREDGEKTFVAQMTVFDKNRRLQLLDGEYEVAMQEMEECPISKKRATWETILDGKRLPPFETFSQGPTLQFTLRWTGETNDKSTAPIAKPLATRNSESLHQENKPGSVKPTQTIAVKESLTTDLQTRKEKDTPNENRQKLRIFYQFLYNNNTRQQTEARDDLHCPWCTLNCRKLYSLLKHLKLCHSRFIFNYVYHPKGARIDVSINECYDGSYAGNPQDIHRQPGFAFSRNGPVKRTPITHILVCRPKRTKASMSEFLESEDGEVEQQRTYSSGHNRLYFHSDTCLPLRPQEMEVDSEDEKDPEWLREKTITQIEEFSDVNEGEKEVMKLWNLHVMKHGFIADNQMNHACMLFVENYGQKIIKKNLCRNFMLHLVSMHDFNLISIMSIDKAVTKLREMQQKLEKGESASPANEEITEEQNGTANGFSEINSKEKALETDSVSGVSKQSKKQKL

Compound	selectivity over EZH1 (EZH2 versus EZH1) [fold]	selectivity relative to GSK126 (EZH2 inhibitor)
CC[C@H](C)n1cc(C)c2c(C(=O)NCc3c(C)cc(C)[nH]c3=O)cc(-c3ccc(N4CCNCC4)nc3)cc21 [GSK126]	150	
CCCc1cc(C)[nH]c(=O)c1CNC(=O)c1cc(-c2ccc(N3CCN(C(C)C)CC3)nc2)cc2c1cnn2C(C)C [UNC1999]		less selective
